Measurements from ChEMBL document CHEMBL5505974, “Design, synthesis, and bioactivity evaluation of novel indole-selenide derivatives as P-glycoprotein inhibitors against multi-drug resistance in MCF-7/ADR cell” (Eur J Med Chem, 2024).
Activity calls are given as the source filed them. The calls are words filed in the database; no cut-off is given here.

Key:
MCF7 = test: Cytotoxicity against chemo-sensitive human MCF7 cells assessed as inhibition rate at 5 uM incubated for 48 hrs by CCK8 assay relative to control; format: functional
NCI/ADR-RES [1] = test: Reversal fold, ratio of doxorubicin IC50 to doxorubicin IC50 in presence of test compound for reversal of P-gp mediated multidrug resistance in doxorubicin resistant human MCF-7/ADR cells incubated for 48 hrs by CCK-8 assay; format: functional
NCI/ADR-RES [2] = test: Cytotoxicity against doxorubicin resistant human MCF-7/ADR cells assessed as inhibition rate at 5 uM incubated for 48 hrs by CCK8 assay relative to control; format: functional
NCI/ADR-RES [3] = test: Effect on P-gp expression level in doxorubicin-resistant human MCF-7/ADR cells at 0.5 to 5 uM incubated for 48 hrs by Western blot analysis; format: functional, cell-based; conditions: dose 0.5-5 µM
[4] = target: T1, ATP-dependent translocase ABCB1 (Homo sapiens, UniProt P08183); test: Inhibition of P-gp in doxorubicin resistant human MCF-7/ADR cells assessed as increase in UIC-2 binding to cell at 50 uM incubated for 10 mins by UIC-2 reactivity shift assay; format: cell-based
[5] = target: T1, ATP-dependent translocase ABCB1; test: Inhibition of P-gp-mediated rhodamine-123 efflux in doxorubicin-resistant human MCF-7/ADR cells assessed as increase in Rh123 accumulation incubated for 4 hrs by fluorescence microscopic analysis; format: cell-based; conditions: at 0.1 to 10 µM, dose 0.1-10 µM

T1 sequence (P08183 whole entry): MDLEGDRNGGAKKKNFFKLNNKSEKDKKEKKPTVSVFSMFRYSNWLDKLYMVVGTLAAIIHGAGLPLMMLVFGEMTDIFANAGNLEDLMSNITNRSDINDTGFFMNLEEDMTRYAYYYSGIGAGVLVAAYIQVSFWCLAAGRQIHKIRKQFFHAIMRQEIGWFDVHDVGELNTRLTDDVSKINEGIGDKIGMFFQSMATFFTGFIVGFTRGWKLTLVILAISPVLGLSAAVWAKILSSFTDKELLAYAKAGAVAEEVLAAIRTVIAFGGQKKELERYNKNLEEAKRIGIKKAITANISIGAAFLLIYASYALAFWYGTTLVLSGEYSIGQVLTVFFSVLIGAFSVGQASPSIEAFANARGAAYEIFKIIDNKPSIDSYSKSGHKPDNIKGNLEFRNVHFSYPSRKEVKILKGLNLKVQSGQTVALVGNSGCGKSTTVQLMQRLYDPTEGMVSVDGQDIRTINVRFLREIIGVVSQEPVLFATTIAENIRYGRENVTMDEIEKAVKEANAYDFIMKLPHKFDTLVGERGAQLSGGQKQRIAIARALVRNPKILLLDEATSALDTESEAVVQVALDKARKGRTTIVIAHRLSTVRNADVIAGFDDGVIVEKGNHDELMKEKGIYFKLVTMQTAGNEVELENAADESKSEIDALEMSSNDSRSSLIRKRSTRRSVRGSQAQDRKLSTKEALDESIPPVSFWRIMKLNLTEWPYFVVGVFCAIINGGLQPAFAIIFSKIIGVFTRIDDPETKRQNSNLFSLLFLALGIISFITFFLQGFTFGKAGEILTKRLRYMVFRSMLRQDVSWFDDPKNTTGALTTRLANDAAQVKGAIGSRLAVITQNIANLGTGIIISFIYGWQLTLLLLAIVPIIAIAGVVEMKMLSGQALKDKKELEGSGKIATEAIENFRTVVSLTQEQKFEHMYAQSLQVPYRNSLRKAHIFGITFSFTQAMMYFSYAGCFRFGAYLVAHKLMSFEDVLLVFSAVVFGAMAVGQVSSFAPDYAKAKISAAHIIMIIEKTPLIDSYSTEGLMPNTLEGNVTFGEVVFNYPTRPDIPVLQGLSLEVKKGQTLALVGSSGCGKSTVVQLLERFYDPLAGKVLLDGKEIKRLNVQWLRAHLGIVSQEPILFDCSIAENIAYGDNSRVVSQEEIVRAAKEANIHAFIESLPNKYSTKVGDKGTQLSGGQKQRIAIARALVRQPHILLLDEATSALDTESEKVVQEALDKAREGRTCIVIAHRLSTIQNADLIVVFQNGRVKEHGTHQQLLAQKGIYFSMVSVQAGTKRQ

For `COc1cc2c(cc1OC)CN(C(=O)c1cccc([Se]c3c[nH]c4ccc(C(=O)NCCN(C)C)cc34)c1)CC2`, the inhibition at 5 µM (MCF7) was 9.7%, the “Ratio IC50” value (NCI/ADR-RES [1]) was 7.5 and the inhibition at 5 µM (NCI/ADR-RES [2]) was 13.6%.
In the case of `CN(C)CCNC(=O)c1ccc2[nH]cc([Se]c3cccc(C(=O)NCc4ccccn4)c3)c2c1`, the inhibition at 5 µM (MCF7) is reported as 15.5%, the “Ratio IC50” value (NCI/ADR-RES [1]) is reported as 3.6 and the inhibition at 5 µM (NCI/ADR-RES [2]) is reported as 20.9%.
`O=C(NCc1ccccn1)c1ccc([Se]c2c[nH]c3ccccc23)cc1` was tested, and the inhibition at 5 µM (MCF7) was 0.2%, the “Ratio IC50” value (NCI/ADR-RES [1]) was 1.65 and the inhibition at 5 µM (NCI/ADR-RES [2]) was 2.2%.
In the case of `CNC(=O)c1ccc2[nH]cc([Se]c3cccc(C(=O)N4CCc5cc(OC)c(OC)cc5C4)c3)c2c1`, the inhibition at 5 µM (MCF7) is reported as 1.2%, the “Ratio IC50” value (NCI/ADR-RES [1]) is reported as 5.1 and the inhibition at 5 µM (NCI/ADR-RES [2]) is reported as 9.4%.
In the case of `CNC(=O)c1cccc2c([Se]c3cccc(C(=O)NCc4ccccn4)c3)c[nH]c12`, the inhibition at 5 µM (MCF7) is reported as 9.2%, the “Ratio IC50” value (NCI/ADR-RES [1]) is reported as 2 and the inhibition at 5 µM (NCI/ADR-RES [2]) is reported as 13.2%.
Work on `C/C=C/C[C@@H](C)[C@@H](O)[C@H]1C(=O)N[C@@H](CC)C(=O)N(C)CC(=O)N(C)[C@@H](CC(C)C)C(=O)N[C@@H](C(C)C)C(=O)N(C)[C@@H](CC(C)C)C(=O)N[C@@H](C)C(=O)N[C@H](C)C(=O)N(C)[C@@H](CC(C)C)C(=O)N(C)[C@@H](CC(C)C)C(=O)N(C)[C@@H](C(C)C)C(=O)N1C` [CYCLOSPORINE] yielded an inhibition at 5 µM (NCI/ADR-RES [2]) of 25.6%.
For `O=C(NCc1ccccn1)c1cccc([Se]c2c[nH]c3ccc(F)cc23)c1`, the inhibition at 5 µM (MCF7) was 3.6%, the “Ratio IC50” value (NCI/ADR-RES [1]) was 2.7 and the inhibition at 5 µM (NCI/ADR-RES [2]) was 13.5%.
With `COc1ccc(NC(=O)c2cccc([Se]c3c[nH]c4ccccc34)c2)cc1OC` the inhibition at 5 µM (MCF7) was 5.2%, the “Ratio IC50” value (NCI/ADR-RES [1]) was 5.67 and the inhibition at 5 µM (NCI/ADR-RES [2]) was 9.2%.
In the case of `COc1ccc(NC(=O)c2ccc3[nH]cc([Se]c4cccc(C(=O)Nc5ccc(OC)c(OC)c5)c4)c3c2)cc1`, the inhibition at 5 µM (MCF7) is reported as 5.2%, the “Ratio IC50” value (NCI/ADR-RES [1]) is reported as 5.2 and the inhibition at 5 µM (NCI/ADR-RES [2]) is reported as 1.7%.
In the case of `COc1cc2c(cc1OC)CN(C(=O)c1cccc([Se]c3c[nH]c4ccc(C(=O)NC(C)C)cc34)c1)CC2`, the inhibition at 5 µM (MCF7) is reported as 11.2%, the “Ratio IC50” value (NCI/ADR-RES [1]) is reported as 3.9 and the inhibition at 5 µM (NCI/ADR-RES [2]) is reported as 13%.
In the case of `COc1cc2c(cc1OC)CN(C(=O)c1cccc([Se]c3c[nH]c4ccccc34)c1)CC2`, the inhibition at 5 µM (MCF7) is reported as 1.8%, the “Ratio IC50” value (NCI/ADR-RES [1]) is reported as 4.12 and the inhibition at 5 µM (NCI/ADR-RES [2]) is reported as 11.2%.
In the case of `COc1ccc(NC(=O)c2cccc([Se]c3c[nH]c4ncccc34)c2)cc1OC`, the inhibition at 5 µM (MCF7) is reported as 6.3%, the “Ratio IC50” value (NCI/ADR-RES [1]) is reported as 4.2 and the inhibition at 5 µM (NCI/ADR-RES [2]) is reported as 2%.
`COc1cc2c(cc1OC)CN(C(=O)c1cccc([Se]c3c[nH]c4ccc(C(=O)Nc5ccc(F)cc5)cc34)c1)CC2` was tested, and the inhibition at 5 µM (MCF7) was 9.6%, the “Ratio IC50” value (NCI/ADR-RES [1]) was 6.9 and the inhibition at 5 µM (NCI/ADR-RES [2]) was 1.3%.
With `COc1ccc(CNC(=O)c2cccc([Se]c3c[nH]c4ncccc34)c2)cc1OC` the inhibition at 5 µM (MCF7) was 15.7%, the “Ratio IC50” value (NCI/ADR-RES [1]) was 4 and the inhibition at 5 µM (NCI/ADR-RES [2]) was 13.4%.
In the case of `O=C(NCc1ccccn1)c1cccc([Se]c2c[nH]c3ccccc23)c1`, the inhibition at 5 µM (MCF7) is reported as 17.5%, the “Ratio IC50” value (NCI/ADR-RES [1]) is reported as 8.49 and the inhibition at 5 µM (NCI/ADR-RES [2]) is reported as 15.1%.
With `COc1ccc(-c2ccc(C(=O)N3CCc4cc(OC)c(OC)cc4C3)o2)cc1` the inhibition at 5 µM (MCF7) was 11.7%, the “Ratio IC50” value (NCI/ADR-RES [1]) was 23.7 and the inhibition at 5 µM (NCI/ADR-RES [2]) was 16.3%.
`COc1ccc(NC(=O)c2ccc3[nH]cc([Se]c4cccc(C(=O)NCc5ccccn5)c4)c3c2)cc1` was tested, and the inhibition at 5 µM (MCF7) was 6.6%, the “Ratio IC50” value (NCI/ADR-RES [1]) was 4.4 and the inhibition at 5 µM (NCI/ADR-RES [2]) was 9%.
`COc1cc2c(cc1OC)CN(C(=O)c1cccc([Se]c3c[nH]c4ccc(-c5cnn(C)c5)cc34)c1)CC2` was tested, and the Activity (NCI/ADR-RES [3]) was “inactive”, the “inhibition (INH)” value [4] was “Active” and the “inhibition (INH)” value [5] was “Dose-Dependent Effect”. The inhibition at 5 µM (MCF7) was 21.1%, the “Ratio IC50” value (NCI/ADR-RES [1]) was 271.7 and the inhibition at 5 µM (NCI/ADR-RES [2]) was 33.7%.
With `CNC(=O)c1ccc2[nH]cc([Se]c3cccc(C(=O)NCc4ccccn4)c3)c2c1` the inhibition at 5 µM (MCF7) was 15.1%, the “Ratio IC50” value (NCI/ADR-RES [1]) was 5.7 and the inhibition at 5 µM (NCI/ADR-RES [2]) was 12.8%.
In the case of `COc1cc2c(cc1OC)CN(C(=O)c1cccc([Se]c3c[nH]c4ncccc34)c1)CC2`, the inhibition at 5 µM (MCF7) is reported as 7.7%, the “Ratio IC50” value (NCI/ADR-RES [1]) is reported as 2.8 and the inhibition at 5 µM (NCI/ADR-RES [2]) is reported as 5.8%.
`COc1ccc(Cn2cc([Se]c3cccc(C(=O)Nc4ccc(OC)c(OC)c4)c3)c3ccccc32)cc1` was tested, and the inhibition at 5 µM (MCF7) was 4.2%, the “Ratio IC50” value (NCI/ADR-RES [1]) was 16.4 and the inhibition at 5 µM (NCI/ADR-RES [2]) was 7%.
For `COc1ccc(NC(=O)c2ccc3[nH]cc([Se]c4cccc(C(=O)N5CCc6cc(OC)c(OC)cc6C5)c4)c3c2)cc1`, the inhibition at 5 µM (MCF7) was 5.9%, the “Ratio IC50” value (NCI/ADR-RES [1]) was 9.1 and the inhibition at 5 µM (NCI/ADR-RES [2]) was 8.7%.
With `COc1ccc(CNC(=O)c2ccc([Se]c3c[nH]c4ccccc34)cc2)cc1OC` the inhibition at 5 µM (MCF7) was 11.9%, the “Ratio IC50” value (NCI/ADR-RES [1]) was 3.61 and the inhibition at 5 µM (NCI/ADR-RES [2]) was 18.3%.
`O=C(NCc1ccccn1)c1cccc([Se]c2c[nH]c3ncccc23)c1` was tested, and the inhibition at 5 µM (MCF7) was 1%, the “Ratio IC50” value (NCI/ADR-RES [1]) was 2 and the inhibition at 5 µM (NCI/ADR-RES [2]) was 3%.
`O=C(NCc1ccccn1)c1cccc([Se]c2c[nH]c3ccc(C(=O)Nc4ccc(F)cc4)cc23)c1` was tested, and the inhibition at 5 µM (MCF7) was 7%, the “Ratio IC50” value (NCI/ADR-RES [1]) was 2.7 and the inhibition at 5 µM (NCI/ADR-RES [2]) was 10.1%.
With `COc1ccc(Cn2cc([Se]c3cccc(C(=O)N4CCc5cc(OC)c(OC)cc5C4)c3)c3ccccc32)cc1` the inhibition at 5 µM (MCF7) was 10.5%, the “Ratio IC50” value (NCI/ADR-RES [1]) was 25.8 and the inhibition at 5 µM (NCI/ADR-RES [2]) was 4.7%.
For `COc1ccc(CCN(C)CCCC(C#N)(c2ccc(OC)c(OC)c2)C(C)C)cc1OC` (centres undefined), the inhibition at 5 µM (MCF7) was 8.3%.
With `COc1cc2c(cc1OC)CN(C(=O)c1ccc([Se]c3c[nH]c4ccccc34)cc1)CC2` the inhibition at 5 µM (MCF7) was 1.2%, the “Ratio IC50” value (NCI/ADR-RES [1]) was 3.06 and the inhibition at 5 µM (NCI/ADR-RES [2]) was 3.2%.
In the case of `COc1ccc(CNC(=O)c2cccc([Se]c3c[nH]c4ccccc34)c2)cc1OC`, the inhibition at 5 µM (MCF7) is reported as 8.6%, the “Ratio IC50” value (NCI/ADR-RES [1]) is reported as 2.4 and the inhibition at 5 µM (NCI/ADR-RES [2]) is reported as 15.4%.
With `COc1cc2c(cc1OC)CN(C(=O)c1cccc(Sc3c[nH]c4ccc(-c5cnn(C)c5)cc34)c1)CC2` the inhibition at 5 µM (MCF7) was 22.7%, the “Ratio IC50” value (NCI/ADR-RES [1]) was 46.3 and the inhibition at 5 µM (NCI/ADR-RES [2]) was 19.6%.
`COc1cc2c(cc1OC)CN(CCc1ccc(NC(=O)c3cc(OC)c(OC)cc3NC(=O)c3cnc4ccccc4c3)cc1)CC2` was tested, and the inhibition at 5 µM (MCF7) was 36.9%, the “Ratio IC50” value (NCI/ADR-RES [1]) was 261.6 and the inhibition at 5 µM (NCI/ADR-RES [2]) was 45.1%.
In the case of `COc1ccc(NC(=O)c2ccc([Se]c3c[nH]c4ccccc34)cc2)cc1OC`, the inhibition at 5 µM (MCF7) is reported as 5.5%, the “Ratio IC50” value (NCI/ADR-RES [1]) is reported as 3.98 and the inhibition at 5 µM (NCI/ADR-RES [2]) is reported as 7.3%.
With `COc1cc2c(cc1OC)CN(C(=O)c1cccc([Se]c3c[nH]c4ccc(F)cc34)c1)CC2` the inhibition at 5 µM (MCF7) was 17.4%, the “Ratio IC50” value (NCI/ADR-RES [1]) was 95.1 and the inhibition at 5 µM (NCI/ADR-RES [2]) was 26%.
`COc1ccc(NC(=O)c2cccc([Se]c3c[nH]c4ccc(-c5cnn(C)c5)cc34)c2)cc1OC` was tested, and the inhibition at 5 µM (MCF7) was 35.6%, the “Ratio IC50” value (NCI/ADR-RES [1]) was 98.4 and the inhibition at 5 µM (NCI/ADR-RES [2]) was 47%.
`CNC(=O)c1ccc2c([Se]c3cccc(C(=O)NCc4ccccn4)c3)c[nH]c2c1` was tested, and the inhibition at 5 µM (MCF7) was 13.3%, the “Ratio IC50” value (NCI/ADR-RES [1]) was 1.2 and the inhibition at 5 µM (NCI/ADR-RES [2]) was 10.8%.
